In patent US20260107938A1, “HERBICIDE/SAFENER COMBINATION BASED ON SAFENERS FROM THE CLASS OF SUBSTITUTED [(1,5- DIPHENYL-1H-1,2,4-TRIAZOL-3-YL)OXY]ACETIC ACIDS AND THEIR SALTS” (BAYER AKTIENGESELLSCHAFT, priority 2022, published 2026):

System: summer wheat (TRZAS; cv. Triso)
Assay: Greenhouse post-emergence trial: reduction in herbicide damage to summer wheat by safener
Format: in vivo
Design: key to Reduction in damage by safener (difference): difference in visual damage, % points (0-100% scale vs untreated)
Settings: 21 days after application
Protocol: Effect of selective herbicide/safener combinations of the invention using the example of reduction in damage to summer wheat (TRZAS):
The seeds of the crop plants to be treated were laid out in soil in plastic pots (diameter ˜8 cm), covered with soil and grown in a greenhouse under good conditions for germination and growth. The trial plants were treated at the early leaf stage (BBCH12).
For this purpose, the herbicides and safeners used were formulated as wettable powders (WP), mixed in accordance with the dose specified in each case, and sprayed onto the above-ground parts of the plants as an aqueous suspension at a water application rate corresponding to 300 l/ha with addition of wetting agent (Mero, 1.5 l/ha).
The dose of the respective herbicides was chosen here such that it causes visually apparent damage (min. 30%, max. 70%) compared to untreated crop plants at the evaluation time on a control group of crop plants without safener treatment that were included in the same trial. After application, the plants were cultivated under good growth conditions in a greenhouse. 21 days after application, the herbicide damage was assessed visually. The damage was assessed visually on a scale of 0-100% by comparison with untreated control plants, and averaged over 2 repeats per treatment.
0%=no noticeable effect compared to the untreated plant 20%=the treated plant population has 20% damage compared to the untreated control population (e.g. growth height, leaf damage, etc.)
100%=treated plants completely damaged/killed.
The safeners were each used at an application rate of 80 g/ha.

[1] = herbicide B19 100 g a.i./ha + safener 80 g/ha
[2] = herbicide B110 50 g a.i./ha + safener 80 g/ha
[3] = herbicide B122 50 g a.i./ha + safener 80 g/ha
[4] = herbicide B123 50 g a.i./ha + safener 80 g/ha

Row | Compound | Damage to the plant on application of herbicide + safener [1] [%] | Reduction in damage by safener (difference) [1] | Reduction in damage by safener (in %) [1] [%] | Damage to the plant on application of herbicide + safener [2] [%] | Reduction in damage by safener (difference) [2] | Reduction in damage by safener (in %) [2] [%] | Damage to the plant on application of herbicide + safener [3] [%] | Reduction in damage by safener (difference) [3] | Reduction in damage by safener (in %) [3] [%] | Damage to the plant on application of herbicide + safener [4] [%] | Reduction in damage by safener (difference) [4] | Reduction in damage by safener (in %) [4] [%]
1 | COC(=O)COc1nc(-c2ccc(Cl)cc2F)n(-c2ccc(Cl)cc2F)n1 [Compound A1, methyl {[1,5-bis(4-chloro-2-fluorophenyl)-1H-1,2,4-triazol-3-yl]oxy}acetate] | 0 | 30 | 100 | 0 | 70 | 100 | 0 | 55 | 100 | 10 | 60 | 86
2 | COC(=O)COc1nc(-c2ccc(F)cc2F)n(-c2ccc(Cl)cc2F)n1 [Compound A5, methyl {[1-(4-chloro-2-fluorophenyl)-5-(2,4-difluorophenyl)-1H-1,2,4-triazol-3-yl]oxy}acetate] | 0 | 30 | 100 | 0 | 70 | 100 | 0 | 55 | 100 | 25 | 45 | 64
